Laboratory results published in patent US8252273B2, “Ultraviolet absorber” (Lead Chemical Co., Ltd., priority 2007, dated 2012).
Values belong to the compound of their own block, whether it stands above or below them.

What was measured:
[1] = Test Example 3: ultraviolet irradiation test (absorption spectra for different irradiation times); type: physicochemical; details: conclusion for the compounds
Excerpt: Ointments (samples B, C, D and E) prepared in Test Example 1 were interposed between two pieces of synthetic quartz plates to prepare measurement samples.
From a light radiated from a 500 W ultra-high pressure mercury vapor lamp (trade name: USH-500D; manufactured by Ushio Inc.), the visible light was removed through a water filter of 5 cm and an ultraviolet transmitting and visible light-absorbing filter (trade name: UV-D33S; manufactured by AGC Techno Glass Co., Ltd.). Then, each measurement sample was irradiated with ultraviolet rays mostly in the UVA and the UVB ranges. Ultraviolet rays irradiation time was set at 0, 5, 10, 15, 20, 25 and 30 minutes. The results of the test are shown in the ultraviolet absorption spectra of FIG. 4 to FIG. 7.

[2] = Test Example 2: solubility test in organic solvents; type: physicochemical; details: for Amount of solvent required to dissolve 100 mg of sample / Concentration on dissolving 100 mg of sample: room temperature (23 to 25° C.)
Procedure: Sample a: the O-tolyl-4-methoxycinnamate compound synthesized in Example 1
Sample b: the Compound of Reference Example 2
The amounts of various organic solvents capable of dissolving 100 mg of each sample at room temperature (23 to 25° C.) were measured. For dissolving the sample, a 50 mL polypropylene conical tube (manufactured by CORNING Inc.) was used, and dissolution was carried out by stirring with a shaker (trade name: Vortex G-56; manufactured by Scientific Ind. Inc.) for 1 minute.

- Ultraviolet absorptive capacity (absorption strength) under ultraviolet irradiation in the UVA and the UVB ranges [1]: increases further
- melting point: 108 to 109 °C
Structure (SMILES): CCOc1ccc(/C=C/C(=O)Oc2ccccc2C)cc1 [Example 2, O-tolyl-4-ethoxycinnamate]

Structure (SMILES): COc1ccc(C(=O)CC(=O)c2ccc(C(C)(C)C)cc2)cc1 [Reference Example 2, 4-tert-butyl-4′-methoxy-dibenzoylmethane, reference compound]
- Ultraviolet absorptive capacity (absorption strength) under ultraviolet irradiation in the UVA and the UVB ranges [1]: decreases or remains the same

- Amount of solvent required to dissolve 100 mg of sample ([2]; Acetone): < 1 mL
- Concentration on dissolving 100 mg of sample ([2]; Acetone): (>10)
- Amount of solvent required to dissolve 100 mg of sample ([2]; Ethanol): 10 mL
- Concentration on dissolving 100 mg of sample ([2]; Ethanol): (1)
- Amount of solvent required to dissolve 100 mg of sample ([2]; Ether): 3 mL
- Concentration on dissolving 100 mg of sample ([2]; Ether): (3.3)
- Amount of solvent required to dissolve 100 mg of sample ([2]; Ethyl acetate): < 1 mL
- Concentration on dissolving 100 mg of sample ([2]; Ethyl acetate): (>10)
- Amount of solvent required to dissolve 100 mg of sample ([2]; Isopropyl alcohol): 15 mL
- Concentration on dissolving 100 mg of sample ([2]; Isopropyl alcohol): (0.67)
- Amount of solvent required to dissolve 100 mg of sample ([2]; Methanol): 7.5 mL
- Concentration on dissolving 100 mg of sample ([2]; Methanol): (1.3)
- Amount of solvent required to dissolve 100 mg of sample ([2]; N-methylpyrrolidone): < 1 mL
- Concentration on dissolving 100 mg of sample ([2]; N-methylpyrrolidone): (>10)
- Ultraviolet absorptive capacity (absorption strength) under ultraviolet irradiation in the UVA and the UVB ranges [1]: increases further
- melting point: 93 to 94 °C
Structure (SMILES): COc1ccc(/C=C/C(=O)Oc2ccccc2C)cc1 [Example 1, O-tolyl-4-methoxycinnamate]
- Solubility in organic solvents compared with Reference Example 2 ([2]; almost all the organic solvents tested): better solubility than that of the compound of Reference Example 2

- Ultraviolet absorptive capacity (absorption strength) under ultraviolet irradiation in the UVA and the UVB ranges [1]: decreases or remains the same
Structure (SMILES): CCCCC(CC)COC(=O)C=Cc1ccc(OC)cc1 (stereo not drawn) [Reference Example 1, 4-methoxycinnamic acid-2-ethylhexyl, reference compound]
